Assay results: PubChem BioAssay AID2305 (GlaxoSmithKline (GSK), 2010)
“And” between values parts separate entries of the source, which are not always exact repeats. Identical values can stand only once. Where a SMILES comes first, the peptide text is derived from it.

Each compound was assayed on P. falciparum 3D7 growth, pLDH absorbance (assay: blood-stage malaria parasite growth potency – strain 3D7, dose response (AID 2305)).

Row | Compound | IC50
1 | Cc1cccc2[nH]c(-c3cccc(-c4cccc(NC(=O)CC5NC(=O)c6ccccc65)c4)c3)nc12 (stereo unspecified) | 1.03 µM
2 | COc1ccc(-c2cccc(NC(=O)c3ccc(C#N)cc3)c2)cc1CN1CCCC1 | 0.7 µM
3 | COc1cccc2c(NN=Cc3ccccc3[N+](=O)[O-])cc(C)nc12 | 0.42 µM
4 | CCN1CCCC1CN(Cc1ccc(-c2ccc(C(F)(F)F)cc2)cc1)C(=O)Cn1c(CCc2cccc(F)c2F)nc(=O)c2ccccc21 (stereo unspecified) | 1.59 µM
5 | Cc1sc2nc(CN3CCCC3)nc(-n3c(NCCO)nc4ccccc43)c2c1C | 1.24 µM
6 | O=c1cc(NCCCNC(CNCCc2ccccc2)c2cc(Br)cc(Br)c2)[nH]c2ccccc12 (stereo unspecified) | 0.86 µM
7 | CC1(C)CC(NC(=O)NC2CCN(Cc3ccccc3)CC2)CC(C)(CNC(=O)NC2CCN(Cc3ccccc3)CC2)C1 (stereo unspecified) | 0.95 µM
8 | CCN(CC)CCOc1ccc(N(Cc2ccc(C(C)(C)C)cc2)C(=O)c2ccc(Cc3ccccc3)cc2)cc1OC | 0.77 µM
9 | COCCNCc1cccc(-c2ccc3c(Nc4ccc(Oc5ccccc5)cc4)ccnc3c2)c1 | 0.52 µM
10 | COc1ccc(NC(=O)[C@H](Cc2ccccc2)Nc2cc(C)nc(NCCc3ccccc3OC)n2)cc1 | 0.53 µM
11 | Cc1cc(NN=Cc2ccccc2F)c2cccc(C)c2n1 | 0.76 µM
12 | COc1ccc2nc3cc(Cl)ccc3c(NCCCCCCNc3c4ccc(Cl)cc4nc4ccc(OC)cc34)c2c1 | 0.66 µM
13 | CC(C)Nc1nc(NCCc2cnc[nH]2)nc(NCc2ccc(Cl)c(Cl)c2)n1 | 0.96 µM
14 | CC(=O)Oc1c(Cl)c(C)nc(C)c1-c1ccc(Oc2ccc(Cl)cc2)cc1 | 0.03 µM
15 | O=c1cc(NCCCNCc2ccccc2-c2ccccc2)[nH]c2ccccc12 | 0.98 µM
16 | COc1ccc2nccc([C@@H](O)CN3CCC(NC(=O)C(c4cc5ccccc5o4)N4CCN(c5ccccc5OC)CC4)CC3)c2c1 (stereo partly specified) | 0.31 µM
17 | Oc1ccccc1CN1CCC2(CCCN(Cc3ccccc3F)C2)C1 (stereo unspecified) | 0.68 µM
18 | CC1CCCN1Cc1cccc(-c2ccc(C(=O)NCCOc3ccccc3)s2)c1 (stereo unspecified) | 0.93 µM
19 | O=C(NCCCCCN1CCC(c2c[nH]c3ccccc23)CC1)Nc1cccc(C(F)(F)F)c1 | 1 µM
20 | Cc1ccc2nc(-c3ccccc3Nc3ccnc4cc(-c5nccs5)ccc34)[nH]c2c1 | 0.19 µM
21 | Cn1cncc1CCCN(Cc1ccc(-c2ccc(C(F)(F)F)cc2)cc1)C(=O)Cn1c(CCc2cccc(F)c2F)cc(=O)c2cccnc21 | 1.25 µM
22 | FC(F)(F)c1ccc(-c2cncc(-c3ccc(C(F)(F)F)cc3)n2)cc1 | 0.76 µM
23 | CCN(CC)CCN(Cc1ccc(-c2ccc(C(F)(F)F)cc2)cc1)C(=O)Cn1c(SCc2ccc(F)c(F)c2F)nc(=O)c2c1CCC2 | 1.02 µM
24 | O=C(C=Cc1cn(-c2ccccc2)nc1-c1ccccc1)N1CCN(c2ccncc2)CC1 | 0.96 µM

Row | Compound | IC50
25 | Cc1ccc(NC(=O)C(C)Sc2n[nH]c(-c3ccccc3Br)n2)cc1 (stereo unspecified) | 1.09 µM
26 | COc1ccc(C(=O)Nc2ccc3nc(N4CCCCC4)cc(C)c3c2)cc1OC | 0.99 µM
27 | CC(Cc1ccc(NC(=O)[C@H](C)NCCc2cccc(Cl)c2)cc1)NCCc1cccc(Cl)c1 (stereo partly specified) | 0.66 µM
28 | NC(=O)c1cccc(-n2ccc3cc(CNC4Cc5ccccc5C4)ccc32)c1 | 1.13 µM
29 | CCNc1cc(C(=O)N[C@@H](Cc2ccccc2)[C@H](O)CN[C@@H]2CCc3ccccc32)cc(N2CCCC2=O)c1 | 1.02 µM
30 | CC(CCc1ccccc1)NCC(O)c1cccc(C(F)(F)F)c1 (stereo unspecified) | 0.71 µM
31 | N#Cc1ccc(CN2CCC(Oc3ccc(NC(=O)c4cccs4)cc3Cl)C2)cc1 (stereo unspecified) | 0.4 µM
32 | CC[C@H]1CN(C/C=C/c2ccc(OC)cc2)CC[C@H]1CCCc1ccnc2ccc(O)cc12 | 0.66 µM
33 | CCN(c1ccccc1)S(=O)(=O)c1ccc(OC)c(NC(=O)c2cccc(C(F)(F)F)c2)c1 | 0.88 µM
34 | CCCC(=O)Nc1ccc(OCCCCN(Cc2ccccc2C(F)(F)F)c2ccc(C(F)(F)F)c(C#N)c2)cc1 | 0.97 µM
35 | CCNC(=O)Nc1cccc(-c2ccc(-c3nc4c(C)cccc4[nH]3)s2)c1 | 0.77 µM
36 | Cc1cc(N)c2cc(NC(=O)c3ccc4ccccc4c3)ccc2n1 | 0.25 µM
37 | CC(C)c1ccc(N(CC(=O)N/N=C/c2ccc(C(F)(F)F)cc2)S(=O)(=O)c2ccc(C(F)(F)F)cc2)cc1 | 0.85 µM
38 | Cc1ccc(Nc2cc(C)nn2-c2nc(C)cc(=O)[nH]2)cc1 | 0.86 µM
39 | CO/C(=C\C=C\c1cc2cc(Cl)ccc2[nH]1)C(=O)NCCCN1CCN(c2cc(Cl)ccc2OC)CC1 | 0.88 µM
40 | CC(=O)Nc1ccc(NC(=O)c2cc(-c3ccc(C)cc3O)n[nH]2)cc1 | 0.49 µM
41 | O=C(NCc1cccs1)[C@H](Cc1ccccc1)Nc1ccnc(NCCc2ccccc2)n1 | 1.05 µM
42 | O=S(=O)(NCCN1CCCC1)c1ccc(-c2cccc(CNCc3ccc(F)cc3)c2)cc1 | 0.73 µM
43 | Cc1cc2nc(-c3ccc(C(=O)NCc4ccc(Cl)c(Cl)c4)cc3)[nH]c2cc1C | 0.83 µM
44 | Cc1cccc2nc(C(=O)Nc3nc(CN4CCC(C)CC4)cs3)cn12 | 0.76 µM
45 | COc1ccc(CN2CCC(CNC(C)c3cccc4ccccc34)CC2)cc1 (stereo unspecified) | 0.18 µM
46 | COc1ccc2nc3cc(Cl)ccc3c(Nc3ccc(C(=O)O)cc3)c2c1 | 0.3 µM
47 | Nc1ccc(-c2ccc3ccnc(N)c3c2)cn1 | 0.35 µM
48 | COc1ccc(CC(C)NCC(O)c2ccc(Cl)c(Cl)c2)cc1 (stereo unspecified) | 0.72 µM

Row | Compound | IC50
49 | COc1ccnc(NCCCNCc2cn(S(=O)(=O)c3ccccc3)c3ccccc23)c1 | 0.79 µM
50 | FC(F)(F)c1ccc(NC(=S)NC2CCC(CN3CCC(c4c[nH]c5ccccc45)CC3)CC2)cc1 (stereo unspecified) | 0.73 µM and 0.39 µM
51 | CC(=O)N[C@H](C(=O)Nc1ccc(-c2ccc(-c3nc4ccc(C(F)(F)F)cc4[nH]3)s2)cc1)C(C)C | 1.03 µM
52 | CCCc1cc([C@@H](O)[C@@H]2C[C@@H]3CCN2C[C@@H]3CC)c2ccccc2n1 | 0.43 µM
53 | CC(C)(C)c1ccc(O)c(CNC2CCCCC2)c1 | 0.26 µM
54 | Cc1ccccc1C(=O)NC(NC(=S)Nc1ccc([N+](=O)[O-])cc1)C(Cl)(Cl)Cl (stereo unspecified) | 0.74 µM
55 | O=C(NCC(=O)N1CCC[C@H]1C(=O)O)[C@@H](Cc1ccccc1)NC(=O)[C@@H]1CCCN1C(=O)CCCc1ccc(O)cc1 (HELM PEPTIDE1{[O=C(CCCc1ccc(O)cc1)[*:2]].P.[dF].G.P}$$$$V2.0) | 1.05 µM
56 | OC(c1ccc(Cl)cc1)(c1ccc(Cl)cc1)C(c1ccc(Cl)cc1)n1ccnc1 (stereo unspecified) | 0.86 µM
57 | COc1ccc(CNC2CCN(C)CC2)cc1-c1ccc(S(=O)(=O)NCCc2ccccn2)s1 | 0.62 µM
58 | CCNc1cc(C(=O)N[C@@H](Cc2ccccc2)[C@H](O)CNC2(CCC(C)C)CC2)cc(N2CCCCS2(=O)=O)c1 | 1.08 µM
59 | Cc1cc(NN=Cc2ccc(Cl)cc2)c2cc(C(F)(F)F)ccc2n1 | 0.92 µM
60 | O=C(Nc1ccc(C(F)(F)F)cc1)N[C@H]1CCN(CCCCCNC(=O)[C@@H]2C[C@H]2c2ccc(Cl)c(Cl)c2)C1 | 1.1 µM
61 | Cc1cc(NN=Cc2ccccc2[N+](=O)[O-])c2ccc(F)cc2n1 | 0.35 µM
62 | c1ccc(CNCc2ccc(-c3cccc(-c4nc5ccccc5[nH]4)c3)cc2)cc1 | 0.42 µM
63 | O=C(/C=C/c1ccc(Cl)c(Cl)c1)NCCCCCN1CCCC(C(=O)Nc2cccc(Cl)c2)C1 (stereo unspecified) | 0.9 µM
64 | CO/C(=C\C=C\c1cc2cc(Cl)c(Cl)cc2[nH]1)C(=O)N[C@H]1CN2CCC1CC2 | 1.21 µM
65 | CCOCc1cnc(C)nc1NCC(=O)c1c(C)[nH]c2cc(C)ccc12 | 1.21 µM
66 | COc1ccc(CNC2Cc3ccccc3C2)cc1-c1ccc(OC)c(S(=O)(=O)NCCN2CCCC2)c1 | 0.77 µM
67 | Cc1cccc2[nH]c(-c3ccc(-c4ccc(CN5CCN(c6ccncc6)CC5)cc4)cc3)nc12 | 0.16 µM
68 | N#Cc1ccc2c(c1)CN(CCC1CCC(NC(=O)c3cc4ccccc4cc3N)CC1)CC2 (stereo unspecified) | 1.04 µM
69 | c1cc(CN2CCN(CCN3CCOCC3)CC2)cc(-c2csc(-c3nc4ccccc4[nH]3)c2)c1 | 0.45 µM
70 | Cc1cccc(C)c1CNc1ccnc2ccccc12 | 1.2 µM
71 | CC(=O)Oc1c(Cl)c(C)nc(C)c1-c1ccc(Oc2ccc(OC(F)(F)F)cc2)cc1 | 0.1 µM
72 | Cc1cc(C(F)(F)F)n2nc(C(=O)N(Cc3cncn3Cc3ccccc3F)CC3CC3)cc2n1 | 0.96 µM

Row | Compound | IC50
73 | Cc1ccc(C)c(Sc2ccc(NC(=O)CN3CCN(C(=O)c4ccco4)CC3)cc2)c1 | 0.72 µM
74 | Cc1cccc2[nH]c(-c3ccc(-c4ccc(CN5CCN(c6ccc(C#N)cn6)CC5)cc4)s3)nc12 | 1.13 µM
75 | COc1cccc(OC)c1C(=O)N1CCC2(CC1)C(=O)N(CC(=O)NC1CCCCC1)CN2c1ccccc1 | 0.95 µM
76 | Cc1ccccc1C1CCN(C2CCC(NC(=O)/C=C/c3ccc(OC(F)(F)F)cc3)CC2)CC1 (stereo unspecified) | 0.86 µM
77 | CN(C)c1ccc(C=C2SC(=O)NC2=Nc2ccccc2)cc1 | 0.03 µM
78 | NCCCNc1nc(Nc2cccc(C(N)=O)c2)c2c(=O)[nH]ccc2n1 | 0.59 µM
79 | Cc1ccccc1C1CCN(c2ncc(C(=O)Nc3ccccc3)cc2Cl)CC1 | 1.01 µM
80 | CC(=O)c1cccc2cc(C(=O)NC3CCC(CCN4CCc5ccc(C#N)cc5C4)CC3)[nH]c12 (stereo unspecified) | 0.79 µM
81 | Cc1nc2nc(N)nc(N)c2c(C)c1Cc1cccc(C(F)(F)F)c1 | 1.29 µM
82 | N#Cc1ccc(CN2CCC(Oc3ccc(NC(=O)c4cccs4)cc3Cl)CC2)cc1 | 0.58 µM
83 | CCCNCc1ccc(-c2ccc(CN(CCOC)C(=O)c3cscn3)cc2)nc1 | 0.18 µM
84 | CCCCCCN1CCC(NCc2cccc3ccccc23)CC1 | 0.81 µM
85 | N#Cc1cc(C(=O)c2cc(Br)ccc2O)cn(-c2cc(Cl)cc(Cl)c2)c1=O | 0.88 µM
86 | Cc1cc(N2CCCC2)nc(Nc2ccc(NC(=O)c3ccc(Br)o3)cc2)n1 | 0.62 µM
87 | COc1ccc(CN(C2CC2)C(C)C(=O)c2[nH]c(C)c(C(C)=O)c2C)cc1 (stereo unspecified) | 1.59 µM
88 | Cc1cc(N[C@@H](CC(C)C)C(=O)NCc2cccs2)nc(NCCc2ccccc2)n1 | 1.19 µM
89 | Cc1cccc2[nH]c(-c3ccc(-c4cccc(C(=O)NCCc5cn(C)cn5)c4)s3)nc12 | 0.88 µM
90 | Cc1cc(NC(=O)[C@@H](Nc2ccc(C#N)c3ccccc23)C2CCCCC2)ccc1F | 0.89 µM
91 | CCN(C(=O)NC)[C@@H]1c2cc(C#N)ccc2OC(C)(C)[C@H]1O | 0.3 µM
92 | O=C(NC1CCCCC1)c1csc(C2CCCN(C(=O)c3ccc(O)c(-c4cccc(C(F)(F)F)c4)c3)C2)n1 (stereo unspecified) | 1.67 µM
93 | CC(=O)c1ccc(S(=O)(=O)N2CCC(C(=O)Nc3ccccc3N3CCCC3)CC2)cc1 | 0.83 µM
94 | CN1CCc2cc(NS(=O)(=O)c3ccc(-c4ccc(Cl)cc4)cc3)c(OCCCN3CCCCC3)cc2CC1 | 0.96 µM
95 | O=S(=O)(NCCN1CCCC1)c1cccc(-c2cccc(CNCc3ccc(F)cc3)c2)c1 | 0.85 µM
96 | CN(C)c1ccc(-c2ccc(C(=O)NC3CCN(Cc4ccccc4F)CC3)s2)cc1 | 1.4 µM
